Where two headings read alike, the source gives them in different places. Blank lines part the entries; values can stand above or below the molecule they belong to.
Biological target: human PDHK2 (hPDHK2) (Homo sapiens (Human), UniProt Q15119)
Test: Inhibitory action of PDHK activity in vitro (kinase reaction, residual PDH activity measured)
Assay type: biochemical
[1] = PDHK inhibitory activity, class symbol of IC50
[2] = read-out: PDHK inhibitory activity IC50
[3] = PDHK inhibitory activity IC50 (μmol/L)
[4] = PDHK inhibitory activity (class symbol)

SMILES: O=C(O)CCCOc1cc(Cl)c2c(c1)C(O)(C(F)(F)F)c1ccccc1-2 (single isomer, unassigned) [compound 479]
IC50 [1]: > 1000 nM
IC50 [2]: > 10000 nM

SMILES: OC1(C(F)(F)F)c2ccccc2-c2c(Cl)cc(F)cc21 (centres unmarked) [compound 525]
IC50 [1]: 100 to 1000 nM
IC50 [2]: 677 nM

SMILES: O=C(O)c1ccc(-c2cc(-c3cccnc3)c3c(c2)C(O)(C(F)(F)F)c2ccccc2-3)cc1 (centres unmarked) [compound 342]
IC50 [1]: < 100 nM
IC50 [2]: 47 nM

SMILES: CCOC(=O)C1CCN(c2ccc3c(c2)C(O)(C(F)(F)F)c2ccccc2-3)CC1 (centres unmarked) [compound 223]
IC50 [1]: > 1000 nM
IC50 [2]: 2330 nM

IC50 [3]: 3330 nM
IC50 [1]: > 1000 nM
SMILES: Cc1cc(Cl)c2c(c1)[C@](O)(C(F)(F)F)c1ccccc1-2 (stereo in doubt) [compound 520]

SMILES: COC(=O)c1cc(Br)c2c(c1)C(O)(C(F)(F)F)c1ccccc1-2 (centres unmarked) [compound 472]
IC50 [1]: 100 to 1000 nM
IC50 [2]: 184 nM

SMILES: COC(=O)c1ccc(-c2ccc3c(c2)C(O)(C(F)(F)F)c2ccccc2-3)cc1Cl (centres unmarked) [compound 236]
IC50 [1]: 100 to 1000 nM
IC50 [2]: 355 nM

SMILES: OC1(C(F)(F)F)c2ccccc2-c2c(-c3ccsc3)cccc21 (centres unmarked) [compound 309]
IC50 [1]: > 1000 nM
IC50 [2]: > 10000 nM

SMILES: O=C(O)c1ccc(-c2cc(Cl)c3c(c2)C(O)(C(F)(F)F)c2ccccc2-3)cc1 (centres unmarked) [compound 234]
IC50 [1]: < 100 nM
IC50 [2]: 58 nM

SMILES: COCc1cccc2c1-c1ccccc1C2(O)C(F)(F)F (centres unmarked) [compound 82]
IC50 [1]: > 1000 nM
IC50 [2]: 67300 nM

SMILES: OC1(C(F)(F)F)c2cc(Cl)ccc2-c2ccc(Cl)cc21 [compound 14]
IC50 [1]: > 1000 nM
IC50 [2]: 56600 nM

SMILES: CNC(=O)c1ccccc1-c1ccc2c(c1)C(O)(C(F)(F)F)c1ccccc1-2 (centres unmarked) [compound 183]
IC50 [1]: > 1000 nM
IC50 [2]: > 10000 nM

SMILES: C/C=C/c1cc(-c2cnn(C(CO)CO)c2)c2c(c1)C(O)(C(F)(F)F)c1ccccc1-2 (centres unmarked) [compound 651]
IC50 [4]: < 100 nM
IC50 [2]: 25 nM

SMILES: COC(=O)c1cc(Cl)cc2c1-c1ccccc1C2(O)C(F)(F)F (centres unmarked) [compound 616]
IC50 [4]: 100 to 1000 nM
IC50 [2]: 192 nM

SMILES: OC1(C(F)(F)F)c2ccccc2-c2ccc(Cl)cc21 (centres unmarked) [compound 5]
IC50 [1]: > 1000 nM
IC50 [2]: 1170 nM

SMILES: C#Cc1cc(-c2cnn(C)c2)cc2c1-c1ccccc1C2(O)C(F)(F)F (centres unmarked) [compound 578]
IC50 [1]: < 100 nM
IC50 [2]: 78 nM

SMILES: CON(C)C(=O)c1cccc2c1-c1ccccc1C2(O)C(F)(F)F (centres unmarked) [compound 65]
IC50 [1]: > 1000 nM
IC50 [2]: > 100000 nM

SMILES: OCc1ccc(-c2ccc3c(c2)C(O)(C(F)(F)F)c2ccccc2-3)cc1 (centres unmarked) [compound 194]
IC50 [1]: 100 to 1000 nM
IC50 [2]: 368 nM

SMILES: CN(C)C(=O)c1cc(-c2cnn(C)c2)c2c(c1)C(O)(C(F)(F)F)c1ccccc1-2 (centres unmarked) [compound 354]
IC50 [1]: < 100 nM
IC50 [2]: 71 nM

SMILES: Cc1cc(C(=O)N2CC(OCCO)C2)cc2c1-c1ccccc1C2(O)C(F)(F)F (single isomer, unassigned) [compound 152]
IC50 [1]: < 100 nM
IC50 [2]: 54 nM

SMILES: CNCCOc1ccc2c(c1)C(O)(C(F)(F)F)c1ccccc1-2 (centres unmarked) [compound 321]
IC50 [1]: > 1000 nM
IC50 [2]: 5380 nM

SMILES: CC(=O)Nc1ccccc1-c1ccc2c(c1)C(O)(C(F)(F)F)c1ccccc1-2 (centres unmarked) [compound 190]
IC50 [1]: > 1000 nM
IC50 [2]: > 10000 nM

SMILES: OCCn1cc(-c2cc(OCCC34CC5CC(CC(C5)C3)C4)cc3c2-c2ccccc2C3(O)C(F)(F)F)cn1 (centres unmarked) [compound 509]
IC50 [1]: < 100 nM
IC50 [2]: 51 nM

SMILES: CC(O)c1cc(-c2cnn(CCO)c2)cc2c1-c1ccccc1C2(O)C(F)(F)F (centres unmarked) [compound 586]
IC50 [1]: 100 to 1000 nM
IC50 [2]: 513 nM

SMILES: OC1(C(F)(F)F)c2ccccc2-c2ccc(-c3ccccc3F)cc21 (centres unmarked) [compound 149]
IC50 [1]: > 1000 nM
IC50 [2]: 1220 nM

SMILES: CC(C)(C)C(=O)N1CCN(c2ccc3c(c2)C(O)(C(F)(F)F)c2ccccc2-3)CC1 (centres unmarked) [compound 209]
IC50 [1]: 100 to 1000 nM
IC50 [2]: 281 nM

IC50 [3]: 16 nM
IC50 [1]: < 100 nM
SMILES: CNC(=O)Cn1cc(-c2cc(F)cc3c2-c2ccccc2[C@]3(O)C(F)(F)F)cn1 (stereo in doubt) [compound 534]

SMILES: Cc1cc(C(=O)N2CC(CO)C2)cc2c1-c1ccccc1C2(O)C(F)(F)F (centres unmarked) [compound 351]
IC50 [1]: 100 to 1000 nM
IC50 [2]: 168 nM

SMILES: OC1(C(F)(F)F)c2ccccc2-c2c(Cl)cc(-c3ccncc3)cc21 (centres unmarked) [compound 185]
IC50 [1]: < 100 nM
IC50 [2]: 53 nM

SMILES: Cn1cc(-c2cc(C(=O)N3CCC3)cc3c2-c2ccccc2C3(O)C(F)(F)F)cn1 (centres unmarked) [compound 355]
IC50 [1]: < 100 nM
IC50 [2]: 40 nM

SMILES: CNC(=O)Cn1cc(-c2cccc3c2-c2ccccc2C3(O)C(F)(F)F)cn1 (centres unmarked) [compound 494]
IC50 [1]: < 100 nM
IC50 [2]: 44 nM

SMILES: Cc1cc(-c2cnn(CCO)c2)cc2c1-c1ccccc1C2(O)C(F)(F)F (centres unmarked) [compound 584]
IC50 [1]: < 100 nM
IC50 [2]: 77 nM

SMILES: COC(=O)c1cc(Cl)c2c(c1)C(O)(C(F)(F)F)c1ccccc1-2 (single isomer, unassigned) [compound 647, 4-chloro-9-hydroxy-9-trifluoromethyl-9H-fluorene-2-carboxylic acid methyl ester]
IC50 [4]: 100 to 1000 nM
IC50 [2]: 169 nM

SMILES: OCC(CO)(CO)n1cc(-c2cccc3c2-c2ccccc2C3(O)C(F)(F)F)cn1 (single isomer, unassigned) [compound 706]
IC50 [4]: < 100 nM
IC50 [2]: 31 nM

SMILES: Oc1ccc2c(c1)-c1ccccc1C2(O)C(F)(F)F (centres unmarked) [compound 62]
IC50 [1]: > 1000 nM
IC50 [2]: 15700 nM

SMILES: NC(=O)Cn1cc(-c2cc(Cl)cc3c2-c2ccccc2C3(O)C(F)(F)F)cn1 (centres unmarked) [compound 506]
IC50 [1]: < 100 nM
IC50 [2]: 30 nM

SMILES: NC(=O)c1ccccc1-c1ccc2c(c1)C(O)(C(F)(F)F)c1ccccc1-2 (centres unmarked) [compound 182]
IC50 [1]: > 1000 nM
IC50 [2]: > 10000 nM

SMILES: COC(=O)c1cccc2c1-c1ccccc1C2(O)C(F)(F)F (centres unmarked) [compound 27]
IC50 [1]: 100 to 1000 nM
IC50 [2]: 848 nM

SMILES: NC(=O)c1cc(OCCN2CCCOC2=O)cc2c1-c1ccccc1C2(O)C(F)(F)F (centres unmarked) [compound 612]
IC50 [4]: < 100 nM
IC50 [2]: 47 nM

SMILES: CN(CCOc1cc(-c2cnn(C)c2)c2c(c1)C(O)(C(F)(F)F)c1ccccc1-2)C(=O)C(C)(C)CO (centres unmarked) [compound 489]
IC50 [1]: < 100 nM
IC50 [2]: 22 nM

SMILES: CCn1cc(-c2cc(CO)c3c(c2)C(O)(C(F)(F)F)c2ccccc2-3)cn1 (single isomer, unassigned) [compound 629, 4-hydroxymethyl-2-(1-ethyl-1H-pyrazol-4-yl)-9-trifluoromethyl-9H-fluoren-9-ol]
IC50 [4]: < 100 nM
IC50 [2]: 45 nM

SMILES: O=C1CCCN1CCOc1cnc2c(c1)C(O)(C(F)(F)F)c1ccccc1-2 (centres unmarked) [compound 430, 1-[2-(5-hydroxy-5-trifluoromethyl-5H-indeno[1,2-b]pyridin-3-yloxy)-ethyl]-pyrrolidin-2-one]
IC50 [1]: < 100 nM
IC50 [2]: 64 nM

SMILES: NC(=O)c1cc(OCCO)cc2c1-c1ccccc1C2(O)C(F)(F)F (centres unmarked) [compound 640]
IC50 [4]: 100 to 1000 nM
IC50 [2]: 732 nM

SMILES: CN(CCO)C(=O)c1ccc2c(c1)C(O)(C(F)(F)F)c1ccccc1-2 (centres unmarked) [compound 297]
IC50 [1]: > 1000 nM
IC50 [2]: 3030 nM

SMILES: CN(CCO)C(=O)COc1ccc2c(c1)C(O)(C(F)(F)F)c1ccccc1-2 (centres unmarked) [compound 366]
IC50 [1]: > 1000 nM
IC50 [2]: 2170 nM

SMILES: NC(=O)CCn1cc(-c2cc(Cl)c3c(c2)C(O)(C(F)(F)F)c2ccccc2-3)cn1 (centres unmarked) [compound 521]
IC50 [1]: < 100 nM
IC50 [2]: 36 nM

SMILES: COC(=O)c1ccc2c(c1)C(O)(C(F)(F)F)c1ccccc1-2 (centres unmarked) [compound 23]
IC50 [1]: 100 to 1000 nM
IC50 [2]: 571 nM

SMILES: OC1(C(F)(F)F)c2ccccc2-c2ccc(-c3ccccc3)cc21 (centres unmarked) [compound 97]
IC50 [1]: 100 to 1000 nM
IC50 [2]: 849 nM

SMILES: O=C(c1ccccc1)c1ccc2c(c1)C(O)(C(F)(F)F)c1ccccc1-2 (centres unmarked) [compound 98]
IC50 [1]: > 1000 nM
IC50 [2]: 2420 nM

SMILES: O=C1CCC(COc2ccc3c(c2)C(O)(C(F)(F)F)c2ccccc2-3)N1 (centres unmarked) [compound 419]
IC50 [1]: 100 to 1000 nM
IC50 [2]: 504 nM

SMILES: CN(CC(=O)O)C(=O)COc1ccc2c(c1)C(O)(C(F)(F)F)c1ccccc1-2 (centres unmarked) [compound 462]
IC50 [1]: > 1000 nM
IC50 [2]: 5980 nM

SMILES: CC(=O)N(C)C(C)COc1ccc2c(c1)C(O)(C(F)(F)F)c1ccccc1-2 (centres unmarked) [compound 381]
IC50 [1]: 100 to 1000 nM
IC50 [2]: 495 nM

SMILES: Cn1cc(-c2cc(OCCCC(=O)O)cc3c2-c2ccccc2C3(O)C(F)(F)F)cn1 (centres unmarked) [compound 449]
IC50 [1]: < 100 nM
IC50 [2]: 47 nM

IC50 [3]: 20 nM
IC50 [1]: < 100 nM
SMILES: OCCn1cc(-c2cc(F)cc3c2-c2ccccc2[C@]3(O)C(F)(F)F)cn1 (stereo in doubt) [compound 531]

IC50 [3]: 15 nM
IC50 [1]: < 100 nM
SMILES: Cc1cc(-c2cnn(C3(CO)CCCC3)c2)c2c(c1)[C@@](O)(C(F)(F)F)c1ccccc1-2 (stereo in doubt) [compound 546]

SMILES: CNC(=O)COc1cc(-c2cnn(C)c2)c2c(c1)C(O)(C(F)(F)F)c1ccccc1-2 (centres unmarked) [compound 442]
IC50 [1]: < 100 nM
IC50 [2]: 40 nM

SMILES: OCCn1cc(-c2cc(-c3cnn(CCO)c3)c3c(c2)C(O)(C(F)(F)F)c2ccccc2-3)cn1 (centres unmarked) [compound 580]
IC50 [1]: < 100 nM
IC50 [2]: 21 nM

SMILES: CCCCCOc1ccc2c(c1)C(O)(C(F)(F)F)c1ccccc1-2 (centres unmarked) [compound 278]
IC50 [1]: 100 to 1000 nM
IC50 [2]: 862 nM

SMILES: CCCCN(C)C(=O)c1ccc2c(c1)C(O)(C(F)(F)F)c1ccccc1-2 (centres unmarked) [compound 308]
IC50 [1]: > 1000 nM
IC50 [2]: 2670 nM

IC50 [3]: 17 nM
IC50 [1]: < 100 nM
SMILES: Cc1cc(-c2cnn(CCO)c2)c2c(c1)[C@@](O)(C(F)(F)F)c1ccccc1-2 (stereo in doubt) [compound 529]

SMILES: CCCOC1CN(C(=O)c2ccc3c(c2)C(O)(C(F)(F)F)c2ccccc2-3)C1 (centres unmarked) [compound 105]
IC50 [1]: 100 to 1000 nM
IC50 [2]: 259 nM

SMILES: CC(C)(O)c1cc(-c2cnn(CCO)c2)cc2c1-c1ccccc1C2(O)C(F)(F)F (centres unmarked) [compound 592]
IC50 (class symbol of IC50, read-out: PDHK inhibitory activity): > 1000 nM
IC50 [2]: > 1000 nM

IC50 [3]: 36 nM
IC50 [1]: < 100 nM
SMILES: O=C(O)CCn1cc(-c2cc(F)cc3c2-c2ccccc2[C@]3(O)C(F)(F)F)cn1 (stereo in doubt) [compound 543]

SMILES: NC(=O)COc1cc(-c2cn[nH]c2)c2c(c1)C(O)(C(F)(F)F)c1ccccc1-2 (centres unmarked) [compound 503]
IC50 [1]: < 100 nM
IC50 [2]: 45 nM
